Tested on: MPNST complex spheroid with HUVEC/MSC, growth, % test/control
Test: Anticancer human tumor MPNST cell line growth inhibition [Asc];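 also: compounds left on spheroids for seven days before reading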
Settings: for IC50: curve of first compound; for viability, T/C: stronger effect = lower value
Outline: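 Complex solid-tumor spheroids incorporating human endothelial and mesenchymal stem cells received single agents or combinations over half-log dilution ranges anchored to clinical Cmax.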

[1] = second compound 0.00316 µM, first compound 0.00316 µM
[2] = second compound 0.00316 µM, first compound 0.01 µM
[3] = second compound 0.00316 µM, first compound 0.0316 µM
[4] = second compound 0.00316 µM, first compound 0.1 µM
[5] = second compound 0.00316 µM, first compound 0.316 µM
[6] = second compound 0.00316 µM, first compound 1 µM
[7] = second compound 0.01 µM, first compound 0.00316 µM
[8] = second compound 0.01 µM, first compound 0.01 µM
[9] = second compound 0.01 µM, first compound 0.0316 µM
[10] = second compound 0.01 µM, first compound 0.1 µM
[11] = second compound 0.01 µM, first compound 0.316 µM
[12] = second compound 0.01 µM, first compound 1 µM
[13] = second compound 0.0316 µM, first compound 0.00316 µM
[14] = second compound 0.0316 µM, first compound 0.01 µM
[15] = second compound 0.0316 µM, first compound 0.0316 µM
[16] = second compound 0.0316 µM, first compound 0.1 µM
[17] = second compound 0.0316 µM, first compound 0.316 µM
[18] = second compound 0.0316 µM, first compound 1 µM
[19] = second compound 0.1 µM, first compound 0.00316 µM
[20] = second compound 0.1 µM, first compound 0.01 µM
[21] = second compound 0.1 µM, first compound 0.0316 µM
[22] = second compound 0.1 µM, first compound 0.1 µM
[23] = second compound 0.1 µM, first compound 0.316 µM
[24] = second compound 0.1 µM, first compound 1 µM
[25] = second compound 0.316 µM, first compound 0.00316 µM
[26] = second compound 0.316 µM, first compound 0.01 µM
[27] = second compound 0.316 µM, first compound 0.0316 µM
[28] = second compound 0.316 µM, first compound 0.1 µM
[29] = second compound 0.316 µM, first compound 0.316 µM
[30] = second compound 0.316 µM, first compound 1 µM
[31] = second compound 1 µM, first compound 0.00316 µM
[32] = second compound 1 µM, first compound 0.01 µM
[33] = second compound 1 µM, first compound 0.0316 µM
[34] = second compound 1 µM, first compound 0.1 µM
[35] = second compound 1 µM, first compound 0.316 µM
[36] = second compound 1 µM, first compound 1 µM

CCN1CCN(Cc2ccc(Nc3ncc(F)c(-c4cc(F)c5nc(C)n(C(C)C)c5c4)n3)nc2)CC1 + CNC(C)C(=O)NC1CN(S(=O)(=O)c2cccc(S(=O)(=O)N3CCC4CCC(C(=O)NC(c5ccccc5)c5ccccc5)N4C(=O)C(NC(=O)C(C)NC)C3)c2)CCC2CCC(C(=O)NC(c3ccccc3)c3ccccc3)N2C1=O
IC50 (second compound 0.00316 µM): > 1000 nM | IC50 (second compound 0.01 µM): > 1000 nM | IC50 (second compound 0.0316 µM): > 1000 nM | IC50 (second compound 0.1 µM): > 1000 nM | IC50 (second compound 0.316 µM): > 1000 nM | IC50 (second compound 1 µM): > 1000 nM | viability, T/C [1]: 80.7% | viability, T/C [2]: 58.2% | viability, T/C [3]: 58.9% | viability, T/C [4]: 56.2% | viability, T/C [5]: 51.9% | viability, T/C [6]: 57.2% | viability, T/C [7]: 141% | viability, T/C [8]: 83.2% | viability, T/C [9]: 102% | viability, T/C [10]: 71.8% | viability, T/C [11]: 61.2% | viability, T/C [12]: 73% | viability, T/C [13]: 94.5% | viability, T/C [14]: 92.9% | viability, T/C [15]: 106% | viability, T/C [16]: 66.5% | viability, T/C [17]: 72.5% | viability, T/C [18]: 87.1% | viability, T/C [19]: 79.7% | viability, T/C [20]: 74.2% | viability, T/C [21]: 75.3% | viability, T/C [22]: 61.7% | viability, T/C [23]: 60.7% | viability, T/C [24]: 82.7% | viability, T/C [25]: 86.5% | viability, T/C [26]: 69.8% | viability, T/C [27]: 106% | viability, T/C [28]: 104% | viability, T/C [29]: 71.9% | viability, T/C [30]: 76.7% | viability, T/C [31]: 66.6% | viability, T/C [32]: 83% | viability, T/C [33]: 66.4% | viability, T/C [34]: 61.4% | viability, T/C [35]: 73.9% | viability, T/C [36]: 68.7%

Cn1ncnc1[C@H]1c2n[nH]c(=O)c3cc(F)cc(c23)N[C@@H]1c1ccc(F)cc1 + CNC(C)C(=O)NC1CN(S(=O)(=O)c2cccc(S(=O)(=O)N3CCC4CCC(C(=O)NC(c5ccccc5)c5ccccc5)N4C(=O)C(NC(=O)C(C)NC)C3)c2)CCC2CCC(C(=O)NC(c3ccccc3)c3ccccc3)N2C1=O
IC50 (second compound 0.00316 µM): < 0.316 nM | IC50 (second compound 0.01 µM): 1.09 nM | IC50 (second compound 0.0316 µM): 23.2 nM | IC50 (second compound 0.1 µM): 82.1 nM | IC50 (second compound 0.316 µM): 26.7 nM | IC50 (second compound 1 µM): 96.7 nM | viability, T/C (second compound 0.00316 µM, first compound 0.000316 µM): 12.2% | viability, T/C (second compound 0.00316 µM, first compound 0.001 µM): 11.4% | viability, T/C [1]: 10.4% | viability, T/C [2]: 11.5% | viability, T/C [3]: 11.3% | viability, T/C [4]: 10.7% | viability, T/C (second compound 0.01 µM, first compound 0.000316 µM): 58.8% | viability, T/C (second compound 0.01 µM, first compound 0.001 µM): 46.2% | viability, T/C [7]: 50.8% | viability, T/C [8]: 37.4% | viability, T/C [9]: 32.5% | viability, T/C [10]: 34.8% | viability, T/C (second compound 0.0316 µM, first compound 0.000316 µM): 77.7% | viability, T/C (second compound 0.0316 µM, first compound 0.001 µM): 73.9% | viability, T/C [13]: 73.6% | viability, T/C [14]: 65.4% | viability, T/C [15]: 43.5% | viability, T/C [16]: 45.2% | viability, T/C (second compound 0.1 µM, first compound 0.000316 µM): 90.3% | viability, T/C (second compound 0.1 µM, first compound 0.001 µM): 64.1% | viability, T/C [19]: 70.6% | viability, T/C [20]: 74.7% | viability, T/C [21]: 61.1% | viability, T/C [22]: 46.4% | viability, T/C (second compound 0.316 µM, first compound 0.000316 µM): 76.2% | viability, T/C (second compound 0.316 µM, first compound 0.001 µM): 62.5% | viability, T/C [25]: 88.4% | viability, T/C [26]: 57.5% | viability, T/C [27]: 51.3% | viability, T/C [28]: 46.1% | viability, T/C (second compound 1 µM, first compound 0.000316 µM): 51.3% | viability, T/C (second compound 1 µM, first compound 0.001 µM): 68.3% | viability, T/C [31]: 49.5% | viability, T/C [32]: 73.9% | viability, T/C [33]: 53.9% | viability, T/C [34]: 50.1%

O=C(c1cc(Cc2n[nH]c(=O)c3ccccc23)ccc1F)N1CCN(C(=O)C2CC2)CC1 + CNC(C)C(=O)NC1CN(S(=O)(=O)c2cccc(S(=O)(=O)N3CCC4CCC(C(=O)NC(c5ccccc5)c5ccccc5)N4C(=O)C(NC(=O)C(C)NC)C3)c2)CCC2CCC(C(=O)NC(c3ccccc3)c3ccccc3)N2C1=O
IC50 (second compound 0.00316 µM): < 31.6 nM | IC50 (second compound 0.01 µM): < 31.6 nM | IC50 (second compound 0.0316 µM): 2010 nM | IC50 (second compound 0.1 µM): 2460 nM | IC50 (second compound 0.316 µM): 2510 nM | IC50 (second compound 1 µM): 3390 nM | viability, T/C [3]: 12.7% | viability, T/C [4]: 10.7% | viability, T/C [5]: 13.4% | viability, T/C [6]: 12.9% | viability, T/C (second compound 0.00316 µM, first compound 3.16 µM): 12.1% | viability, T/C (second compound 0.00316 µM, first compound 10 µM): 13.7% | viability, T/C [9]: 41% | viability, T/C [10]: 36.8% | viability, T/C [11]: 50.4% | viability, T/C [12]: 44.6% | viability, T/C (second compound 0.01 µM, first compound 3.16 µM): 26.4% | viability, T/C (second compound 0.01 µM, first compound 10 µM): 27.4% | viability, T/C [15]: 76.2% | viability, T/C [16]: 65.6% | viability, T/C [17]: 59.9% | viability, T/C [18]: 64.3% | viability, T/C (second compound 0.0316 µM, first compound 3.16 µM): 40.4% | viability, T/C (second compound 0.0316 µM, first compound 10 µM): 37.7% | viability, T/C [21]: 76.5% | viability, T/C [22]: 85% | viability, T/C [23]: 82.4% | viability, T/C [24]: 79.8% | viability, T/C (second compound 0.1 µM, first compound 3.16 µM): 41.8% | viability, T/C (second compound 0.1 µM, first compound 10 µM): 38.8% | viability, T/C [27]: 100% | viability, T/C [28]: 66% | viability, T/C [29]: 84.7% | viability, T/C [30]: 81.3% | viability, T/C (second compound 0.316 µM, first compound 3.16 µM): 41.8% | viability, T/C (second compound 0.316 µM, first compound 10 µM): 42.4% | viability, T/C [33]: 75.8% | viability, T/C [34]: 63.4% | viability, T/C [35]: 60% | viability, T/C [36]: 68.2% | viability, T/C (second compound 1 µM, first compound 3.16 µM): 45.3% | viability, T/C (second compound 1 µM, first compound 10 µM): 42%

O=C(c1ccc(F)c(F)c1Nc1ccc(I)cc1F)N1CC(O)([C@@H]2CCCCN2)C1 + CNC(C)C(=O)NC1CN(S(=O)(=O)c2cccc(S(=O)(=O)N3CCC4CCC(C(=O)NC(c5ccccc5)c5ccccc5)N4C(=O)C(NC(=O)C(C)NC)C3)c2)CCC2CCC(C(=O)NC(c3ccccc3)c3ccccc3)N2C1=O
IC50 (second compound 0.00316 µM): 472 nM | IC50 (second compound 0.01 µM): 781 nM | IC50 (second compound 0.0316 µM): 858 nM | IC50 (second compound 0.1 µM): 922 nM | IC50 (second compound 0.316 µM): 868 nM | IC50 (second compound 1 µM): 892 nM | viability, T/C [1]: 71% | viability, T/C [2]: 46.5% | viability, T/C [3]: 82.4% | viability, T/C [4]: 65.1% | viability, T/C [5]: 66.1% | viability, T/C [6]: 19.9% | viability, T/C [7]: 107% | viability, T/C [8]: 103% | viability, T/C [9]: 131% | viability, T/C [10]: 134% | viability, T/C [11]: 108% | viability, T/C [12]: 34.2% | viability, T/C [13]: 108% | viability, T/C [14]: 88.7% | viability, T/C [15]: 110% | viability, T/C [16]: 126% | viability, T/C [17]: 77.6% | viability, T/C [18]: 45.8% | viability, T/C [19]: 86.9% | viability, T/C [20]: 89.1% | viability, T/C [21]: 81.6% | viability, T/C [22]: 90.5% | viability, T/C [23]: 97.2% | viability, T/C [24]: 47% | viability, T/C [25]: 69.7% | viability, T/C [26]: 67.3% | viability, T/C [27]: 65.5% | viability, T/C [28]: 134% | viability, T/C [29]: 87.7% | viability, T/C [30]: 45% | viability, T/C [31]: 70.1% | viability, T/C [32]: 80.1% | viability, T/C [33]: 105% | viability, T/C [34]: 113% | viability, T/C [35]: 96% | viability, T/C [36]: 45.2%

From PubChem BioAssay AID1963442 (Molecular Pharmacology Branch, DTP, NCI, 2024)
